Measurements published in patent US20230091047A1 (priority 2019, published 2023).

Legend:
[1] = system: HBV (HepG2.117 cell line, inducibly HBV producing); test: Anti-HBV activity: intracellular HBV DNA by real-time PCR in HepG2.117 cells after 3 days of treatment; format: cell-based, hepatitis B virus; conditions: Hepatitis B virus, HepG2.117, 72 h, HepG2.117 cells, intracellular HBV DNA by real-time PCR, 3 days of treatment, mean value; read-out: EC50 (μM, mean value)
In short: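 Read-out is intracellular HBV DNA, measured by real-time PCR using HBV-specific primers and probe. Cells were stable, inducible HBV-producing HepG2.117 (Tet-off). Serially diluted compound was applied for 3 days after replication was induced.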

in vitro = format: cell-based; conditions: human, HepG2 or HepG2.117 cells, ATPlite, 3-days incubation (not marked with *), mean value
In short: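 Luminescent ATP quantitation served as the viability endpoint following a 3- or 4-day incubation with test compounds.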

Structure (SMILES)	EC50 [1]	CC50 at 3 days (in vitro)
CNC(=O)c1ccc(-n2c(N[C@H](C)c3nccs3)nc3c(c2=O)C[C@@H](C)N(C(=O)c2ccc(Cl)c(Cl)c2)C3)cc1 (single isomer, unassigned) [Compound C434a]	0.99 µM	> 50 µM
CNC(=O)c1ccc(-n2c(N[C@@H](C)c3nccs3)nc3c(c2=O)C[C@@H](C)N(C(=O)c2ccc(Cl)c(Cl)c2)C3)cc1 (single isomer, unassigned) [Compound C434b]	0.84 µM	> 50 µM
CNC(=O)c1ccc(-n2c(N[C@H](C)c3ccc(F)c(OC)c3)nc3c(c2=O)C[C@@H](C)N(C(=O)c2ccc(Cl)c(Cl)c2)C3)cc1 (single isomer, unassigned) [Compound C435a]	0.1 µM	26.4 µM
CNC(=O)c1ccc(-n2c(N[C@@H](C)c3ccc(F)c(OC)c3)nc3c(c2=O)C[C@@H](C)N(C(=O)c2ccc(Cl)c(Cl)c2)C3)cc1 (single isomer, unassigned) [Compound C435b]	1.29 µM	45.8 µM
CNC(=O)c1ccc(-n2c(NC[C@H](C)c3cccc(OC)c3)nc3c(c2=O)C[C@@H](C)N(C(=O)c2ccc(Cl)c(Cl)c2)C3)cc1 (single isomer, unassigned) [Compound C436a]	0.99 µM	22.3 µM
CNC(=O)c1ccc(-n2c(NC[C@@H](C)c3cccc(OC)c3)nc3c(c2=O)C[C@@H](C)N(C(=O)c2ccc(Cl)c(Cl)c2)C3)cc1 (single isomer, unassigned) [Compound C436b]	0.36 µM	22.3 µM
CNC(=O)c1ccc(-n2c(N[C@H](CC3CC3)c3ccccc3)nc3c(c2=O)C[C@@H](C)N(C(=O)c2ccc(Cl)c(Cl)c2)C3)cc1 (single isomer, unassigned) [Compound C437a]	0.16 µM	24.6 µM
CNC(=O)c1ccc(-n2c(N[C@@H](CC3CC3)c3ccccc3)nc3c(c2=O)C[C@@H](C)N(C(=O)c2ccc(Cl)c(Cl)c2)C3)cc1 (single isomer, unassigned) [Compound C437b]	0.91 µM	29.4 µM
CNC(=O)c1ccc(-n2c(N[C@H](C)c3ccccc3OC(F)F)nc3c(c2=O)C[C@@H](C)N(C(=O)c2ccc(Cl)c(Cl)c2)C3)cc1 (single isomer, unassigned) [Compound C438a]	0.73 µM	29.2 µM
CNC(=O)c1ccc(-n2c(N[C@@H](C)c3ccccc3OC(F)F)nc3c(c2=O)C[C@@H](C)N(C(=O)c2ccc(Cl)c(Cl)c2)C3)cc1 (single isomer, unassigned) [Compound C438b]	0.15 µM	29.9 µM
CNC(=O)c1ccc(-n2c(N[C@H](C)c3nc[nH]n3)nc3c(c2=O)C[C@@H](C)N(C(=O)c2ccc(Cl)c(Cl)c2)C3)cc1 (single isomer, unassigned) [Compound C439a]	> 10 µM	> 50 µM
CNC(=O)c1ccc(-n2c(N[C@@H](C)c3nc[nH]n3)nc3c(c2=O)C[C@@H](C)N(C(=O)c2ccc(Cl)c(Cl)c2)C3)cc1 (single isomer, unassigned) [Compound C439b]	> 10 µM	> 50 µM
CNC(=O)c1ccc(-n2c(N[C@H](C)c3ccc(OC(F)(F)F)cc3)nc3c(c2=O)C[C@@H](C)N(C(=O)c2ccc(Cl)c(Cl)c2)C3)cc1 (single isomer, unassigned) [Compound C440a]	5.42 µM	25 µM
CNC(=O)c1ccc(-n2c(N[C@@H](C)c3ccc(OC(F)(F)F)cc3)nc3c(c2=O)C[C@@H](C)N(C(=O)c2ccc(Cl)c(Cl)c2)C3)cc1 (single isomer, unassigned) [Compound C440b]	0.07 µM	6.3 µM
CNC(=O)c1ccc(-n2c(N[C@H](C)c3ccc(C#N)cc3)nc3c(c2=O)C[C@@H](C)N(C(=O)c2ccc(Cl)c(Cl)c2)C3)cc1 (single isomer, unassigned) [Compound C441a]	0.22 µM	> 50 µM
CNC(=O)c1ccc(-n2c(N[C@@H](C)c3ccc(C#N)cc3)nc3c(c2=O)C[C@@H](C)N(C(=O)c2ccc(Cl)c(Cl)c2)C3)cc1 (single isomer, unassigned) [Compound C441b]	2.75 µM	> 50 µM
CNC(=O)c1ccc(-n2c(N[C@H](C)c3ccc4[nH]ccc4c3)nc3c(c2=O)C[C@@H](C)N(C(=O)c2ccc(Cl)c(Cl)c2)C3)cc1 (single isomer, unassigned) [Compound C449a]	0.04 µM	> 50 µM
CNC(=O)c1ccc(-n2c(N[C@@H](C)c3ccc4[nH]ccc4c3)nc3c(c2=O)C[C@@H](C)N(C(=O)c2ccc(Cl)c(Cl)c2)C3)cc1 (single isomer, unassigned) [Compound C449b]	0.2 µM	46.4 µM
CNC(=O)c1ccc(-n2c(N[C@H](C)c3ccc4c(ccn4C)c3)nc3c(c2=O)C[C@@H](C)N(C(=O)c2ccc(Cl)c(Cl)c2)C3)cc1 (single isomer, unassigned) [Compound C450a]	0.02 µM	> 50 µM

Structure (SMILES)	EC50 [1]	CC50 at 3 days (in vitro)
CNC(=O)c1ccc(-n2c(N[C@@H](C)c3ccc4c(ccn4C)c3)nc3c(c2=O)C[C@@H](C)N(C(=O)c2ccc(Cl)c(Cl)c2)C3)cc1 (single isomer, unassigned) [Compound C450b]	0.18 µM	> 50 µM
CNC(=O)c1ccc(-n2c(N[C@@H]3C[C@H]3c3ccc(OC)cc3)nc3c(c2=O)C[C@@H](C)N(C(=O)c2ccc(Cl)c(Cl)c2)C3)cc1 (single isomer, unassigned) [Compound C452a]	1.44 µM	> 25 µM
CNC(=O)c1ccc(-n2c(N[C@H](C)C(C)(C)C)nc3c(c2=O)C[C@@H](C)N(C(=O)c2ccc(Cl)c(Cl)c2)C3)cc1 (single isomer, unassigned) [Compound C459a]	0.44 µM	31.9 µM
CNC(=O)c1ccc(-n2c(N[C@@H](C)C(C)(C)C)nc3c(c2=O)C[C@@H](C)N(C(=O)c2ccc(Cl)c(Cl)c2)C3)cc1 (single isomer, unassigned) [Compound C459b]	0.63 µM	32.5 µM
CC(=O)Nc1ccc(-n2c(N[C@H](C)c3ccc4[nH]ncc4c3)nc3c(c2=O)C[C@@H](C)N(C(=O)c2ccc(Cl)c(Cl)c2)C3)cc1 (single isomer, unassigned) [Compound C462a]	1.24 µM	> 50 µM
CC(=O)Nc1ccc(-n2c(N[C@@H](C)c3ccc4[nH]ncc4c3)nc3c(c2=O)C[C@@H](C)N(C(=O)c2ccc(Cl)c(Cl)c2)C3)cc1 (single isomer, unassigned) [Compound C462b]	0.37 µM	> 50 µM
C[C@@H]1Cc2c(nc(N[C@H](C)c3ccc(OC(F)(F)F)cc3)n(-c3ccc(-n4cccn4)cc3)c2=O)CN1C(=O)c1ccc(Cl)c(Cl)c1 (single isomer, unassigned) [Compound C463a]	0.24 µM	> 50 µM
C[C@H](Nc1nc2c(c(=O)n1-c1ccc(-n3cccn3)cc1)C[C@@H](C)N(C(=O)c1ccc(Cl)c(Cl)c1)C2)c1ccc(OC(F)(F)F)cc1 (single isomer, unassigned) [Compound C463b]	7.21 µM	> 50 µM
CNC(=O)c1ccc(-n2c(N[C@@H]3CCOc4ccccc43)nc3c(c2=O)C[C@@H](C)N(C(=O)c2ccc(Cl)c(Cl)c2)C3)cc1 (single isomer, unassigned) [Compound C526a]	0.28 µM	> 50 µM
CNC(=O)c1ccc(-n2c(N[C@H]3CCOc4ccccc43)nc3c(c2=O)C[C@@H](C)N(C(=O)c2ccc(Cl)c(Cl)c2)C3)cc1 (single isomer, unassigned) [Compound C526b]	5.42 µM	16.3 µM
CNC(=O)c1ccc(-n2c(N[C@@H]3CCOc4cc(OC)ccc43)nc3c(c2=O)C[C@@H](C)N(C(=O)c2ccc(Cl)c(Cl)c2)C3)cc1 (single isomer, unassigned) [Compound C527a]	0.39 µM	> 50 µM
CNC(=O)c1ccc(-n2c(N[C@H]3CCOc4cc(OC)ccc43)nc3c(c2=O)C[C@@H](C)N(C(=O)c2ccc(Cl)c(Cl)c2)C3)cc1 (single isomer, unassigned) [Compound C527b]	0.65 µM	> 50 µM
CNC(=O)c1ccc([C@@H](C)Nc2nc3c(c(=O)n2-c2ccc(NC(C)=O)cc2)C[C@@H](C)N(C(=O)c2ccc(Cl)c(Cl)c2)C3)cc1 (single isomer, unassigned) [Compound C528a]	3.38 µM	> 50 µM
CNC(=O)c1ccc([C@H](C)Nc2nc3c(c(=O)n2-c2ccc(NC(C)=O)cc2)C[C@@H](C)N(C(=O)c2ccc(Cl)c(Cl)c2)C3)cc1 (single isomer, unassigned) [Compound C528b]	> 10 µM	> 50 µM
CNC(=O)c1ccc(-n2c(N[C@H](C)c3ccc4[nH]ncc4c3)nc3c(c2=O)C[C@@H](C)N(C(=O)c2ccc(Cl)c(Cl)c2)C3)cc1 (single isomer, unassigned) [Compound C529a]	0.16 µM	> 50 µM
CNC(=O)c1ccc(-n2c(N[C@@H](C)c3ccc4[nH]ncc4c3)nc3c(c2=O)C[C@@H](C)N(C(=O)c2ccc(Cl)c(Cl)c2)C3)cc1 (single isomer, unassigned) [Compound C529b]	0.72 µM	> 50 µM
CNC(=O)c1ccc([C@@H](C)Nc2nc3c(c(=O)n2-c2ccc(C(=O)NC)cc2)C[C@@H](C)N(C(=O)c2ccc(Cl)c(Cl)c2)C3)cc1 (single isomer, unassigned) [Compound C530a]	> 7.4 µM	> 50 µM
CNC(=O)c1ccc([C@H](C)Nc2nc3c(c(=O)n2-c2ccc(C(=O)NC)cc2)C[C@@H](C)N(C(=O)c2ccc(Cl)c(Cl)c2)C3)cc1 (single isomer, unassigned) [Compound C530b]	> 10 µM	> 50 µM
